# Measurements taken from US8410161B2, “Thioxanthone ring system derivatives” (National Defense Medical Center, priority 2010, dated 2013).
# Experiments:
# Format in all cases: cell-based
# A control cell lines = test: MTT assay, A control cell lines (lung cancer cell)
# Text: Please refer to Table 1 and FIGS. 4A-4C. According to a MTT assay (Table 1), various cell viabilities of the A control cell lines can be obtained and illustrated in FIG. 4A while the compounds No. 2˜30 are used to treat A control cell lines, wherein A control cell lines are lung cancer cell.
# A3 cell lines = test: MTT assay, A3 cell lines (lung cancer stem cell)
# Text: Please to FIG. 4B, various cell viabilities of the A3 cell lines can be obtained through the MTT assay and illustrated in FIG. 4B while the compounds No. 1˜30 are used to treat A3 cell lines, wherein A3 cell lines are lung cancer stem cell.
# [1] = MTT assay, HEL299 fibroblast; conditions: human
# Text: (§1) Please refer to FIG. 4C, various cell viabilities of the HEL299 cell lines can be obtained through the MTT assay while the compounds No. 1˜30 are used to treat HEL299 cell lines, wherein HEL299 cell lines are fibroblast.
# HEL299 fibroblast = test: MTT assay, HEL299 fibroblast
# Text: as §1
# [2] = summary of MTT cell viabilities
structure (smiles),measurement,setting,value
"O=c1c2ccccc2sc2c(Cl)c(SCc3ccc(Br)cc3)ccc12 [No. 25, 3-(4-Bromobenzylthio)-4-chloro-9H-thioxanthen-9-one]",cell viabilities of A control cell lines (MTT assay),A control cell lines,40.8%
same,inhibition effect on A control cell line (in words),A control cell lines; [2],inhibition effect
same,cell viabilities of A3 cell lines (MTT assay),A3 cell lines,61.5%
same,inhibition effect on A3 cell line (in words),A3 cell lines; [2],inhibition effect
same,viability,[1],79.3%
same,cytotoxicity effect on the normal fibroblast (in words),HEL299 fibroblast,without the cytotoxicity effect
